Patent US11591355B2 (Peloton Therapeutics, Inc., priority 2017, dated 2023)

Assays:
[1] = target: T1, CD73 on U138 human neuroglioma cells (Homo sapiens, UniProt P21589); assay: CD73 Cell-Based Assay; conditions: U138 cells, AMP substrate, 2 hours at 37° C., inorganic phosphate by malachite green
T1 construct: U138 cells were obtained from ATCC and cultured in DMEM with 10% FBS; host or cells: U138 human neuroglioma cells
T1 sequence (P21589 27-549): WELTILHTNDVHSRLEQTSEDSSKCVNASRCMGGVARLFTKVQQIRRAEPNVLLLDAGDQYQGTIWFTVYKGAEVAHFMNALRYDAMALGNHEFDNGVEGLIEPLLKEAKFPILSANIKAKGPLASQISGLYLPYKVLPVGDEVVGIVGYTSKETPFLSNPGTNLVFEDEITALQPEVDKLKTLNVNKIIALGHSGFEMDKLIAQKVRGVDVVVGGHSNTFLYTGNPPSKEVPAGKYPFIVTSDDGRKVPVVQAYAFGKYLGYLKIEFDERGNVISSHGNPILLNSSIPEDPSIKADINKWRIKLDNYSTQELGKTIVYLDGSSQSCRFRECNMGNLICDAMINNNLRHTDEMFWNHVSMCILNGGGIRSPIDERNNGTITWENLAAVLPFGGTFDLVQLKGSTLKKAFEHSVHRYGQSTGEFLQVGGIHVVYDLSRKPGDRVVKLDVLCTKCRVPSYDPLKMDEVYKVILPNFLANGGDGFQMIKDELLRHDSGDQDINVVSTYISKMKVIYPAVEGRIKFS
Method in brief: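 Whole U138 cells washed free of phosphate were incubated with 200 μM AMP (mixture concentration before equal-volume addition) plus compound in HEPES-buffered saline, pH 7.4, for 2 h at 37 °C, 5% CO2. Adenosine-forming activity read as inorganic phosphate released into supernatant by malachite green.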

Human CD73 = target: T2, Human CD73 (Homo sapiens, UniProt P21589); assay: CD73 Enzyme Assay; type: biochemical; conditions: 0.25 nM hCD73, 25 μM AMP, kinetic read at 360 nm; read-out: CD73 Enzyme Assay IC50
T2 construct: purchased R&D Systems; host or cells: CHO cells
T2 sequence (P21589 27-549): T1 sequence (P21589 27-549)

Row | SMILES | IC50 [1] [nM] | IC50 (Human CD73) [nM]
1 | C[C@H](Nc1nc(C#N)nc2c1ccn2[C@@H]1O[C@H](COCP(=O)(O)O)[C@@H](O)[C@H]1O)c1ccc(C(F)(F)F)cc1 [Compound 147, [(2R,3S,4R,5R)-5-[2-cyano-4-[[(1S)-1-[4-(trifluoromethyl)-phenyl]ethyl]amino]-pyrrolo[2,3-d]-pyrimidin-7-yl]-3,4-dihydroxy-tetrahydro-furan-2-yl]methoxy-methylphosphonic acid] | < 10 | 10 to 100
2 | C[C@H](Nc1nc(Cl)nc2c1ncn2[C@@H]1O[C@H](CS(=O)(=O)CP(=O)(O)O)[C@@H](O)[C@H]1O)c1ccccc1 [Compound 152, [(2S,3S,4R,5R)-5-[2-chloro-6-[[(1S)-1-phenylethyl]amino]-purin-9-yl]-3,4-dihydroxy-tetrahydro-furan-2-yl]methyl-sulfonylmethylphos-phonic acid] | 10 to 100 | 10 to 100
3 | C[C@H](Nc1nc(Cl)nc2c1ccn2[C@@H]1O[C@H](CS(=O)(=O)CP(=O)(O)O)[C@@H](O)[C@H]1O)c1ccccc1 [Compound 153, [(2S,3S,4R,5R)-5-[2-chloro-4-[[(1S)-1-phenylethyl]amino]-pyrrolo[2,3-d]-pyrimidin-7-yl]-3,4-dihydroxy-tetrahydro-furan-2-yl]methyl-sulfonylmethylphos-phonic acid] | 10 to 100 | < 10
4 | C[C@@H](Nc1nc(Cl)nc2c1ccn2[C@@H]1O[C@H](CS(=O)(=O)CP(=O)(O)O)[C@@H](O)[C@H]1O)c1ccccc1 [Compound 154, [(2S,3S,4R,5R)-5-[2-chloro-4-[[(1R)-1-phenylethyl]amino]-pyrrolo[2,3-d]-pyrimidin-7-yl]-3,4-dihydroxy-tetrahydro-furan-2-yl]methyl-sulfonylmethylphos-phonic acid] | < 10 | < 10
5 | O=P(O)(O)CS(=O)(=O)C[C@H]1O[C@@H](n2ccc3c(NC4CCCC4)nc(Cl)nc32)[C@H](O)[C@@H]1O [Compound 155, (((((2S,3S,4R,5R)-5-(2-chloro-4-(cyclopentylamino)-7H-pyrrolo[2,3-d]pyrimidin-7-yl)-3,4-dihydroxytetrahydrofuran-2-yl)methyl)sulfonyl)methyl)phosphonic acid] | < 10 | < 10
6 | O=P(O)(O)CS(=O)(=O)C[C@H]1O[C@@H](n2ccc3c(N4CC5CCCC5C4)nc(Cl)nc32)[C@H](O)[C@@H]1O (stereo partly drawn) [Compound 156, [(2S,3S,4R,5R)-5-[4-(3,3a,4,5,6,6a-hexa-hydro-1H-cyclopenta-[c]pyrrol-2-yl)-2-chloro-pyrrolo[2,3-d]-pyrimidin-7-yl]-3,4-dihydroxy-tetrahydro-hydrofuran-2-yl]-methylsulfonylmethyl-phosphonic acid] | < 10 | < 10
7 | C[C@H](c1ccccc1)N(C)c1nc(Cl)nc2c1ccn2[C@@H]1O[C@H](CS(=O)(=O)CP(=O)(O)O)[C@@H](O)[C@H]1O [Compound 157, [(2S,3S,4R,5R)-5-[2-chloro-4-[methyl-[(1R)-1-phenylethyl]-amino]pyrrolo[2,3-d]-pyrimidin-7-yl]-3,4-dihydroxy-tetrahydro-furan-2-yl]methyl-sulfonylmethylphos-phonic acid] | < 10 | < 10
8 | N#Cc1nc(N2CC3CCCC3C2)c2ccn([C@@H]3O[C@H](CS(=O)(=O)CP(=O)(O)O)[C@@H](O)[C@H]3O)c2n1 (stereo partly drawn) [Compound 158, [(2S,3S,4R,5R)-5-[4-(3,3a,4,5,6,6a-hexa-hydro-1H-cyclopenta-[c]pyrrol-2-yl)-2-cyano-pyrrolo[2,3-d]-pyrimidin-7-yl]-3,4-dihydroxy-tetrahydro-furan-2-yl]methyl-sulfonylmethylphos-phonic acid] | < 10 | < 10
9 | O=P(O)(O)CS(=O)(=O)C[C@H]1O[C@@H](n2ccc3c(NC4CC5CC5C4)nc(Cl)nc32)[C@H](O)[C@@H]1O (stereo partly drawn) [Compound 159, [(2S,3S,4R,5R)-5-[4-(3-bicyclo[3.1.0]-hexanylamino)-2-chloro-pyrrolo[2,3-d]-pyrimidin-7-yl]-3,4-dihydroxy-tetrahydro-furan-2-yl]methyl-sulfonylmethylphos-phonic acid] | < 10 | < 10
